# US9126997B1, “Synergistic effect of glucocorticoid receptor agonists in combination with proteosome inhibitors for treating leukemia and myeloma” (Northwestern University, priority 2010, dated 2015)
# How the values were obtained:
# [1] = system: glucocorticoid receptor (GR); assay: GR protein levels in cells after treatment with proteasome inhibitor; type: cell-based, human
# Description: (§1) Further, GR protein expression can be increased both in the absence and in the presence of […] such as glucocorticoids and SEGRA. Importantly, in the presence of GR ligands, cell pre-treatment with BZ results in the accumulation of GR whose function is defined by the ligand. […] Thus, SEGRA+BZ administered in combination will maximize the anti-inflammatory and anti-proliferative effects of SEGRA therapy that are based on GR transrepression, and at the same time will not induce metabolic side effects typical for glucocorticoids that are based on GR transactivation.
# [2] = system: glucocorticoid receptor (GR); assay: Function (transactivation / transrepression) of GR accumulated after cell pre-treatment with BZ in the presence of GR ligands; type: cell-based
# Description: as §1
smiles,measurement,setting,value
CC(C)C[C@H](NC(=O)[C@H](Cc1ccccc1)NC(=O)c1cnccn1)B(O)O [Bortezomib],endogenous GR protein levels,[1]; human epithelial and lymphoid cell lines and primary cell cultures,strongly increases endogenous GR protein levels
same,GR expression in GR-negative cells,[1]; some glucocorticoid-resistant GR-negative cells,re-expression of GR
same,GR accumulation and function,[2]; in the presence of SEGRA,accumulation of GR whose activity is shifted towards transrepression
same,GR accumulation and function,[2]; in the presence of glucocorticoids,accumulation of GR that is proficient in both transactivation and transrepression
